The source of these data is article PMC11990898, “Novel Isatin–Chalcone Hybrid Molecules: Design, Synthesis and Anti-Neuroinflammatory Activity Evaluation” (Molecules, 2025).

Several values for one entry are separate records, joined by “and”; a condition that tells them apart may be missing. Equal values may be shown once.

Format in all cases: cell-based, mouse
For data set [1], the system named is NO release from LPS-stimulated BV2 cells. As to the kind of experiment: NO release inhibition in LPS-stimulated BV2 cells (Griess method). To be noted: for Nitrite (NO release amount): BV2 cells induced by LPS, Griess test; for Nitrite (NO release amount) / inhibition at 20 µM: compound at 20 μM; for IC50 / inhibition at 20 µM: Mus musculus, BV-2, LPS-stimulated BV2 cells; for IC50: 24 h; for inhibition at 20 µM: read-out: NO inhibition rate. On the procedure: BV2 cells stimulated by lipopolysaccharide (LPS) lead to an increase in NO release. Therefore, we used the inhibitory ability of the target compounds on NO as a preliminary method to evaluate their anti-neuroinflammatory properties. We evaluated the inhibitory ability of isatin–chalcone hybrid derivatives 4a–t on the release of NO from BV2 cells at 20 μM. The release amount of NO was detected by the Griess method, and the actual release amount of NO was calculated based on the experimental data.
BV2 cells were plated in 96-well microplates at 40,000 cells per well (100 μL/well) and incubated for 24 h. Then, 50 μL of LPS solution with a final concentration of 100 ng/mL and 50 μL of compounds (diluted with medium to a final concentration of 0.31–20 μM) were added, and each concentration had 3 parallel wells. The NO assay kit was used to carry out nitrite assays after 24 h. The 50 μL of culture medium was mixed with the GrisR1 (50 μL) and GrisR2 (50 μL) of the NO assay kit in another new 96-well plate. The absorbance was detected at 540 nm. The percentage of inhibition of NO was obtained from the following formula: [(Rlps − RB − RC)/(Rlps − RB)] × 100, where Rlps is the release amount of only the LPS-treated group, RB is the release amount of the normal control and RC is the release amount of the test compound and LPS-treated group. The IC50 values of test compounds were calculated by linear regression plots.

For data set [2], the system named is BV2 microglial cells. As to the kind of experiment: Cell viability assay (MTS) on BV2 cells. To be noted: for cell viability: compound at 25 μM, MTS; for cell viability / IC50: 24 h; for IC50: Mus musculus, BV-2, MTS. The method, then:
(§1) BV2 microglial cells (SCSP-5208, Cell Bank, Chinese Academy of Sciences, Shanghai, China) were incubated in high-glucose DMEM supplemented with 10% fetal bovine serum and 1% penicillin and streptomycin in a humidified atmosphere of 5% CO2 at 37 °C.
(§2) BV2 cells were plated in 96-well microplates at 20,000 cells per well (100 μL/well) and incubated for 24 h. Then, 100 μL of compounds (diluted with medium to a final concentration of 1.56–100 μM) was added, and each concentration had 3 parallel wells. After 24 h, the cell viability was measured by MTS assay. The absorbance was detected at 490 nm. The percentage of viability was obtained from the following formula: ODdrug-treated/ODnormal cells × 100. The IC50 values of test compounds were calculated by linear regression plots.

Data set [3] can be described thus: Cell viability assay (MTS) on BV2 cells. To be noted: mouse, BV2 microglial cells, MTS. The method, then:
as §1, §2

Regarding `CCOC(=O)CN1C(=O)/C(=C/C(C)=O)c2ccccc21` [Compound 4a, Ethyl (E)-2-(2-oxo-3-(2-oxopropylidene)indolin-1-yl)acetate], the “Nitrite (NO release amount)” value in data set [1] is 22.9 µM and 22.9 ± 0.5 µM.
On the same count and under the same terms, then `CCOC(=O)CN1C(=O)/C(=C/C(=O)c2ccccc2)c2ccccc21` [Compound 4c, Ethyl (E)-2-(2-oxo-3-(2-oxo-2-phenylethylidene)indolin-1-yl)acetate], with 19.3 ± 0.5 µM; and `CCOC(=O)CN1C(=O)/C(=C/C(=O)c2ccc(C)cc2)c2ccccc21` [Compound 4d, Ethyl (E)-2-(2-oxo-3-(2-oxo-2-(p-tolyl)ethylidene)indolin-1-yl)acetate], with 12.5 ± 0.2 µM.
In the case of `CCOC(=O)CN1C(=O)/C(=C/C(=O)c2ccc(CC)cc2)c2ccccc21` [Compound 4e, Ethyl (E)-2-(3-(2-(4-ethylphenyl)-2-oxoethylidene)-2-oxoindolin-1-yl)acetate], the “Nitrite (NO release amount)” value in data set [1] was 15.2 ± 0.3 µM.
Take `CCOC(=O)CN1C(=O)/C(=C/C(=O)c2ccc(C(C)C)cc2)c2ccccc21` [Compound 4f, Ethyl (E)-2-(3-(2-(4-isopropylphenyl)-2-oxoethylidene)-2-oxoindolin-1-yl)acetate]: the cell viability entry in data set [2] is “nearly non-cytotoxic”. Moreover, the “Nitrite (NO release amount)” value in data set [1] came out at 17.1 ± 0.3 µM.
On to `CCCCCc1ccc(C(=O)/C=C2/C(=O)N(CC(=O)OCC)c3ccccc32)cc1` [Compound 4g, Ethyl (E)-2-(2-oxo-3-(2-oxo-2-(4-pentylphenyl)ethylidene)indolin-1-yl)acetate], for which the viability at 24 h, 3.1 µM in data set [3] (compound at 3.1 μM, read-out: cell viability (cell survival rate)) amounted to 98.4%. Further, the viability at 24 h, 6.3 μM in data set [3] (compound at 6.3 μM (printed 6.23 μM for 4b), read-out: cell viability (cell survival rate)) was determined as 95.1%. In addition, the viability at 24 h, 12.5 µM in data set [3] (compound at 12.5 μM) came to 83.9%. The same molecule showed a viability at 24 h, 25 µM in data set [3] (compound at 25 μM, 24 h) of 42%. For the same molecule, inhibition in data set [2] was half-maximal at 30.1 µM (IC50). For the same molecule, the cytotoxicity result in data set [2] (under the concentration of 12.5 μM) was “did not show obvious cytotoxicity”. For the same molecule, in data set [1], the “Nitrite (NO release amount)” value amounted to 8.5 ± 0.1 µM, the IC50 was 10.8 µM and the inhibition at 20 µM turned out to be 73%.
Regarding `CCOC(=O)CN1C(=O)/C(=C/C(=O)c2ccc(OC)cc2)c2ccccc21` [Compound 4h, Ethyl (E)-2-(3-(2-(4-methoxyphenyl)-2-oxoethylidene)-2-oxoindolin-1-yl)acetate], in data set [1], the “Nitrite (NO release amount)” value stood at 20.6 ± 0.6 µM.
`CCOC(=O)CN1C(=O)/C(=C/C(=O)c2ccc(OCC)cc2)c2ccccc21` [Compound 4i, Ethyl (E)-2-(3-(2-(4-ethoxyphenyl)-2-oxoethylidene)-2-oxoindolin-1-yl)acetate]: in data set [1], the “Nitrite (NO release amount)” value turned out to be 15.3 ± 0.3 µM.
For the molecule `CCOC(=O)CN1C(=O)/C(=C/C(=O)c2ccc(F)cc2)c2ccccc21` [Compound 4k, Ethyl (E)-2-(3-(2-(4-fluorophenyl)-2-oxoethylidene)-2-oxoindolin-1-yl)acetate], the “Nitrite (NO release amount)” value in data set [1] worked out at 15.2 ± 0.2 µM.
Same read-out and setting: the figure for `CCOC(=O)CN1C(=O)/C(=C/C(=O)c2ccc(Cl)cc2)c2ccccc21` [Compound 4l, Ethyl (E)-2-(3-(2-(4-chlorophenyl)-2-oxoethylidene)-2-oxoindolin-1-yl)acetate] is 17.5 ± 0.3 µM.
Still for that read-out and setting: then `CCOC(=O)CN1C(=O)/C(=C/C(=O)c2ccc(Br)cc2)c2ccccc21` [Compound 4m, Ethyl (E)-2-(3-(2-(4-bromophenyl)-2-oxoethylidene)-2-oxoindolin-1-yl)acetate], with 18.6 ± 0.3 µM; and `CCOC(=O)CN1C(=O)/C(=C/C(=O)c2ccc([N+](=O)[O-])cc2)c2ccccc21` [Compound 4n, Ethyl (E)-2-(3-(2-(4-nitrophenyl)-2-oxoethylidene)-2-oxoindolin-1-yl)acetate], with 16.7 ± 0.3 µM.
Consider `CCOC(=O)CN1C(=O)/C(=C/C(=O)c2ccc(-c3ccccc3)cc2)c2ccccc21` [Compound 4o, Ethyl (E)-2-(3-(2-([1,1′-biphenyl]-4-yl)-2-oxoethylidene)-2-oxoindolin-1-yl)acetate], for which the cell viability entry in data set [2] was “nearly non-cytotoxic”. The “Nitrite (NO release amount)” value in data set [1] worked out at 19.0 ± 0.4 µM.
For `CCOC(=O)CN1C(=O)/C(=C/C(=O)c2ccc3ccccc3c2)c2ccccc21` [Compound 4p, Ethyl (E)-2-(3-(2-(naphthalen-2-yl)-2-oxoethylidene)-2-oxoindolin-1-yl)acetate], the “Nitrite (NO release amount)” value in data set [1] is 17.0 ± 0.3 µM.
On to `CCOC(=O)CN1C(=O)/C(=C/C(=O)c2ccco2)c2ccccc21` [Compound 4q, Ethyl (E)-2-(3-(2-(furan-2-yl)-2-oxoethylidene)-2-oxoindolin-1-yl)acetate], for which the cell viability entry in data set [2] is “nearly non-cytotoxic”. In data set [1], the “Nitrite (NO release amount)” value was 20.2 ± 0.4 µM and the inhibition at 20 µM was 30%.
For `CCOC(=O)CN1C(=O)/C(=C/C(=O)c2ccc[nH]2)c2ccccc21` [Compound 4r, Ethyl (E)-2-(2-oxo-3-(2-oxo-2-(1H-pyrrol-2-yl)ethylidene)indolin-1-yl)acetate], in data set [1], the “Nitrite (NO release amount)” value is 20.5 ± 0.6 µM and the inhibition at 20 µM is 28%.
Turning to `CCOC(=O)CN1C(=O)/C(=C/C(=O)c2ccccn2)c2ccccc21` [Compound 4s, Ethyl (E)-2-(2-oxo-3-(2-oxo-2-(pyridin-2-yl)ethylidene)indolin-1-yl)acetate], in data set [2], the cell viability result is “nearly non-cytotoxic”. The “Nitrite (NO release amount)” value in data set [1] was determined as 11.1 ± 0.4 µM.
For `CCOC(=O)CN1C(=O)/C(=C/C(=O)C2CC2)c2ccccc21` [Compound 4t, Ethyl (E)-2-(3-(2-cyclopropyl-2-oxoethylidene)-2-oxoindolin-1-yl)acetate], the “Nitrite (NO release amount)” value in data set [1] worked out at 16.7 ± 0.2 µM.
With `COC(=O)CN1C(=O)/C(=C/C(=O)c2cc(OC)c(OC)c(OC)c2)c2ccccc21` [Compound 5a, Methyl (E)-2-(2-oxo-3-(2-oxo-2-(3,4,5-trimethoxyphenyl)ethylidene)indolin-1-yl)acetate], the IC50 in data set [2] was 78.6 µM; in data set [1], 10.9 µM.
The corresponding values for `CCCCCCCOC(=O)CN1C(=O)/C(=C/C(=O)c2cc(OC)c(OC)c(OC)c2)c2ccccc21` [Compound 5b, Heptyl (E)-2-(2-oxo-3-(2-oxo-2-(3,4,5-trimethoxyphenyl)ethylidene)indolin-1-yl)acetate] are 45.3 µM and 15.8 µM.
For `CCCCCCCCCCCOC(=O)CN1C(=O)/C(=C/C(=O)c2cc(OC)c(OC)c(OC)c2)c2ccccc21` [Compound 5c, Undecyl (E)-2-(2-oxo-3-(2-oxo-2-(3,4,5-trimethoxyphenyl)ethylidene)indolin-1-yl)acetate] the same measures were 19.8 µM and 6.3 µM.
The corresponding values for `COc1cc(C(=O)/C=C2/C(=O)N(CC(=O)OCCc3ccccc3)c3ccccc32)cc(OC)c1OC` [Compound 5f, Phenethyl (E)-2-(2-oxo-3-(2-oxo-2-(3,4,5-trimethoxyphenyl)ethylidene)indolin-1-yl)acetate] are 42.7 µM and 10.7 µM.
On to `CCOC(=O)CN1C(=O)/C(=C/C(=O)c2cc(OC)c(OC)c(OC)c2)c2cc(I)ccc21` [Compound 9d, Ethyl (E)-2-(5-iodo-2-oxo-3-(2-oxo-2-(3,4,5-trimethoxyphenyl)ethylidene)indolin-1-yl)acetate], for which the inhibition at 20 µM in data set [1] amounted to 22%.
`CCOC(=O)CN1C(=O)/C(=C/C(=O)c2cc(OC)c(OC)c(OC)c2)c2cc(OC)ccc21` [Compound 9f, Ethyl (E)-2-(5-methoxy-2-oxo-3-(2-oxo-2-(3,4,5-trimethoxyphenyl)ethylidene)indolin-1-yl)acetate] showed an IC50 in data set [2] of 78.1 µM. In data set [1], 10.4 µM corresponded to half-maximal inhibition (IC50) and the inhibition at 20 µM came to 68%.
As for `O=C1Nc2ccccc2C1=O` [Isatin, 1H-indole-2,3-dione], the “Nitrite (NO release amount)” value in data set [1] is 20.8 ± 0.9 µM.
